≈ marks a conversion by molar mass, not a printed value. Calls of active or inactive are those of the source. The calls are words filed in the database; no cut-off is given here.
Tests used:
[1] = tested on: Mycobacterium tuberculosis; assay: Antibiofilm activity against Mycobacterium tuberculosis H37Rv at 10 ug/ml after 1 week; assay type: functional
[2] = Cytotoxicity against mouse RAW264.7 cells assessed as growth inhibition at 25 uM after 48 hrs by MTT assay relative to control; assay type: cell-based; details: read-out: GI
[3] = tested on: Mycobacterium tuberculosis; assay: Antibacterial activity against Mycobacterium tuberculosis H37Rv after 1 week by MABA; assay type: functional; details: 168 h
[4] = tested on: Mycobacterium tuberculosis; assay: Bacteriostatic activity against Mycobacterium tuberculosis H37Rv at 5 to 20 uM incubated up to 21 days; assay type: functional, organism-based
[5] = tested on: Mycobacterium tuberculosis; assay: Antibacterial activity against non replicating Mycobacterium tuberculosis H37Rv assessed as log reduction in bacterial count at 10 ug/ml incubated for 7 days followed by compound dilution measured after 4 weeks; assay type: functional
[6] = tested on: Mycobacterium tuberculosis; assay: Ratio of MBC to MIC for Mycobacterium tuberculosis H37Rv; assay type: functional
[7] = biological target: T1, Glutamate racemase (Mycobacterium tuberculosis (strain ATCC 25618 / H37Rv)) (UniProt P9WPW9); assay: Binding affinity to Mycobacterium tuberculosis glutamate racemase assessed as change in melting temperature by SYPRO orange dye based fluorescence assay
T1 sequence (whole entry): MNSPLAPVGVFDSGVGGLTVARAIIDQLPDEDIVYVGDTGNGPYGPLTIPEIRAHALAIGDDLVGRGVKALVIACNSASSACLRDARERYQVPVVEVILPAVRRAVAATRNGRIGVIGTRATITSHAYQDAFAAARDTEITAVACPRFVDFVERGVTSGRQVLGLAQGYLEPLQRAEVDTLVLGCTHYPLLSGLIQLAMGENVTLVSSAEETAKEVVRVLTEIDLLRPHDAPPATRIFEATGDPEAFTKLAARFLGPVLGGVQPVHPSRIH

[8] = tested on: Mycobacterium tuberculosis; assay: Antibacterial activity against Mycobacterium tuberculosis H37Rv after 1 week in presence of efflux pump inhibitor piperine by MABA; assay type: functional; details: 168 h
[9] = tested on: Mycobacterium tuberculosis; assay: Antibacterial activity against Mycobacterium tuberculosis H37Rv after 1 week in presence of efflux pump inhibitor verapamil by MABA; assay type: functional; details: 168 h
Mycobacterium marinum [10] = assay: Antibacterial activity against Mycobacterium marinum ATCC BAA-535 infected in zebra fish assessed as log reduction in bacterial load at 10 mg/kg, po for 7 days; assay type: functional
Mycobacterium marinum [11] = assay: Antibacterial activity against Mycobacterium marinum ATCC BAA-535 infected in zebra fish assessed as log reduction in bacterial load at 5 mg/kg, po for 7 days; assay type: functional
[12] = biological target: T1, Glutamate racemase (Mycobacterium tuberculosis (strain ATCC 25618 / H37Rv)); assay: Non-competitive inhibition of Mycobacterium tuberculosis glutamate racemase assessed as change in melting temperature by SYPRO orange dye based fluorescence assay
[13] = biological target: T1, Glutamate racemase (Mycobacterium tuberculosis (strain ATCC 25618 / H37Rv)); assay: Non-competitive inhibition of Mycobacterium tuberculosis glutamate racemase assessed as change in melting temperature in presence of substrate D-glutamate by SYPRO orange dye based fluorescence assay
[14] = tested on: Mycobacterium tuberculosis; assay: Bactericidal activity against Mycobacterium tuberculosis H37Rv incubated up to 21 days; assay type: functional, organism-based
[15] = tested on: Mycobacterium tuberculosis; assay: Bacteriostatic activity against Mycobacterium tuberculosis H37Rv assessed as reduction in bacterial count at 25 uM incubated up to 21 days relative to control; assay type: functional

SMILES	inhibition at 48 h, 25 µM [2]	MIC [3]	MIC [8]	MIC [9]	other results
FC(F)(F)c1ccc2sc(-c3cccc(NC(=S)NCc4ccccc4)c3)nc2c1	96.1%	14.7 µM (≈ 6.52 µg/mL)			log(activity) [1]: 1.8; Activity [4]: Active; log(activity) [5]: 2.1; Ratio [6]: >4
O=C(Nc1ccc(Cl)cc1)Nc1cccc(-c2nc3cc(C(F)(F)F)ccc3s2)c1	45.7%	55.9 µM (≈ 25 µg/mL)			
O=C(Nc1ccc([N+](=O)[O-])cc1)Nc1cccc(-c2nc3cc(C(F)(F)F)ccc3s2)c1	99.2%	54.7 µM (≈ 25.1 µg/mL)			
N[C@H](CCC(=O)O)C(=O)O					ΔTm [7]: 2.4 °C
CC[C@@H](CO)NCCN[C@@H](CC)CO [ETHAMBUTOL]		7.64 µM (≈ 1.56 µg/mL)	3.82 µM	3.82 µM	
O=C(Nc1ccccc1)Nc1cccc(-c2nc3ccccc3s2)c1	97.2%	72.9 µM (≈ 25.2 µg/mL)			
FC(F)(F)c1ccc2sc(-c3cccc(NC(=S)Nc4ccc(Cl)cc4)c3)nc2c1	97.3%	53.9 µM (≈ 25 µg/mL)			
COc1ccc(NC(=O)Nc2cccc(-c3nc4ccccc4s3)c2)cc1	56.1%	33.3 µM (≈ 12.5 µg/mL)			
O=[N+]([O-])c1ccc(NC(=S)Nc2cccc(-c3nc4cc(C(F)(F)F)ccc4s3)c2)cc1	18.4%	52.7 µM (≈ 25 µg/mL)	52.7 µM	3.34 µM	
COc1c(N2C[C@@H]3CCCN[C@@H]3C2)c(F)cc2c(=O)c(C(=O)O)cn(C3CC3)c12 [MOXIFLOXACIN]					log(activity) [1]: 1.8; log(activity) (Mycobacterium marinum [10]): 2.5; Activity [5]: Active
O=C(Nc1ccccc1)Nc1cccc(-c2nc3cc(C(F)(F)F)ccc3s2)c1	40%	3.76 µM (≈ 1.55 µg/mL)			
NNC(=O)c1ccncc1 [ISONIAZID]		0.72 µM (≈ 0.0987 µg/mL)	0.72 µM	0.72 µM	log(activity) [1]: 1; log(activity) (Mycobacterium marinum [11]): 2.6; log(activity) [5]: 1.1
Cc1ccc(NC(=S)Nc2cccc(-c3nc4cc(C(F)(F)F)ccc4s3)c2)cc1	97.1%	28.3 µM (≈ 12.5 µg/mL)			
Fc1ccc(NC(=S)Nc2cccc(-c3nc4cc(C(F)(F)F)ccc4s3)c2)cc1	76.3%	27.9 µM (≈ 12.5 µg/mL)	27.9 µM	7.01 µM	Activity [4]: Active; log(activity) [5]: 2.1; Ratio [6]: >4
S=C(Nc1ccccc1)Nc1cccc(-c2nc3ccccc3s2)c1	2.35%	69.2 µM (≈ 25 µg/mL)			
S=C(Nc1ccc(Cl)cc1)Nc1cccc(-c2nc3ccccc3s2)c1	58.4%	2.09 µM (≈ 0.828 µg/mL)			
Cc1ccc(NC(=O)Nc2cccc(-c3nc4ccccc4s3)c2)cc1	31.2%	69.7 µM (≈ 25 µg/mL)	69.7 µM	2.17 µM	
S=C(NCc1ccccc1)Nc1cccc(-c2nc3ccccc3s2)c1	32.2%	66.6 µM (≈ 25 µg/mL)	66.6 µM	2.12 µM	
CO[C@H]1/C=C/O[C@@]2(C)Oc3c(C)c(O)c4c(O)c(c(/C=N/N5CCN(C)CC5)c(O)c4c3C2=O)NC(=O)/C(C)=C\C=C\[C@H](C)[C@H](O)[C@@H](C)[C@@H](O)[C@@H](C)[C@H](OC(C)=O)[C@@H]1C [RIFAMPIN]		0.15 µM (≈ 0.123 µg/mL)	0.15 µM	0.15 µM	log(activity) [1]: 1.2; log(activity) [5]: 0.5
O=C(Nc1ccc(F)cc1)Nc1cccc(-c2nc3ccccc3s2)c1					ΔTm [7]: 3.3 °C
Cc1ccc(NC(=S)Nc2cccc(-c3nc4ccccc4s3)c2)cc1	17.5%	16.6 µM (≈ 6.24 µg/mL)	16.6 µM	8.29 µM	log(activity) [1]: 2; log(activity) (Mycobacterium marinum [10]): 3.5; Activity [4]: Active; ΔTm [12]: 3.9 °C; log(activity) [5]: 2.1; ΔTm [13]: 4.7 °C; Ratio [6]: >4
Cc1ccc(NC(=O)Nc2cccc(-c3nc4cc(C(F)(F)F)ccc4s3)c2)cc1	22.5%	58.6 µM (≈ 25 µg/mL)			
COc1ccc(NC(=O)Nc2cccc(-c3nc4cc(C(F)(F)F)ccc4s3)c2)cc1	59.1%	56.4 µM (≈ 25 µg/mL)			
FC(F)(F)c1ccc2sc(-c3cccc(NC(=S)Nc4ccccc4)c3)nc2c1	28.1%	14.7 µM (≈ 6.3 µg/mL)	14.6 µM	1.84 µM	
O=C(Nc1ccc(Cl)cc1)Nc1cccc(-c2nc3ccccc3s2)c1	30.1%	65.9 µM (≈ 25 µg/mL)			
O=[N+]([O-])c1ccc(NC(=S)Nc2cccc(-c3nc4ccccc4s3)c2)cc1	98.2%	61.6 µM (≈ 25 µg/mL)			
O=C(Nc1ccc(F)cc1)Nc1cccc(-c2nc3cc(C(F)(F)F)ccc3s2)c1	97.7%	57.9 µM (≈ 25 µg/mL)			
Fc1ccc(NC(=S)Nc2cccc(-c3nc4ccccc4s3)c2)cc1	98.2%	2.15 µM (≈ 0.816 µg/mL)	2.15 µM	2.15 µM	
O=C(Nc1ccc([N+](=O)[O-])cc1)Nc1cccc(-c2nc3ccccc3s2)c1	42.1%	8.09 µM (≈ 3.16 µg/mL)	8.09 µM	2.04 µM	Activity [14]: Dose-dependent effect; log(activity) [1]: 0.7; log(activity) [5]: 2.1; fold change (FC) [15]: >3; Ratio [6]: <4

Source: ChEMBL document CHEMBL4184184, “Lead identification and optimization of bacterial glutamate racemase inhibitors” (Bioorg Med Chem, 2018)
